Measurements: paper PMC9604483, “Crystal Structure of CYP3A4 Complexed with Fluorol Identifies the Substrate Access Channel as a High-Affinity Ligand Binding Site” (International Journal of Molecular Sciences, 2022)
Read-outs that look alike come from different tables or passages of the source.

What was measured:
[1] = molecular target: T1, WT CYP3A4 (Homo sapiens, UniProt P08684); experiment: Equilibrium fluorescence titrations of fluorol with CYP3A4; format: binding
T1 construct: made in house
T1 sequence (P08684 with tags, fused parts or gaps): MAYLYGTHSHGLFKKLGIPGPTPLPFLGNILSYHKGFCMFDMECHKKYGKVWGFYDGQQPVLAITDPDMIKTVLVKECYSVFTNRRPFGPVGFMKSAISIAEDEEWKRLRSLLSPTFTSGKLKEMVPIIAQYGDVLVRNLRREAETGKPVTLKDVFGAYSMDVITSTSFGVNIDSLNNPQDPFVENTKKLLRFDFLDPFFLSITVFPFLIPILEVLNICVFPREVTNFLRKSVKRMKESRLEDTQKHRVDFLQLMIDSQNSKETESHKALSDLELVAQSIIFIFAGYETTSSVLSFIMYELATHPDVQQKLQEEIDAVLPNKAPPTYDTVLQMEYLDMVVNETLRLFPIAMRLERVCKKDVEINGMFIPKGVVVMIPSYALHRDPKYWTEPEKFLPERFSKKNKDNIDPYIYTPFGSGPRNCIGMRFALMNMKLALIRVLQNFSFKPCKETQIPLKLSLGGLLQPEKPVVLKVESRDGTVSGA
From the text: (§1) Equilibrium fluorescence titrations were used as an alternative approach for Kd determination. One advantage of fluorol is a large Stokes shift (difference between the absorption and emission maxima; Figure S1B) and sensitivity to environment, as emission becomes more intense and blue-shifted when polarity of the medium decreases (Figure S1C). Moreover, spectral overlap between the emission band of fluorol and Q-bands of CYP3A4 enables fluorescence resonance energy transfer (FRET) to the heme. This process dominates during complex formation with CYP3A4, because emission is decreased rather than enhanced when fluorol transfers from an aqueous media to a more hydrophobic protein environment. One complication that we encountered during fluorescence measurements was a nonspecific decrease in emission, presumably due to adhesion of fluorol to plastic pipette tips. To overcome this problem, before each titration, small amounts of buffer were added to fluorol solution in 1–2 μL increments (8–10 additions; <2% of volume change) and mixed using the same low-retention pipette tip. When no further changes in fluorescence intensity were observed, the same tip was used for addition and mixing of CYP3A4 aliquots (Figure 4A). […] This means that the low-affinity site in T224A CYP3A4 is less solvated and/or lies closer to the heme.
(§2) As a result, in GS8-bound CYP3A4, fluorol might still be able to bind to the channel, albeit in a different orientation (Figure S2C). […] Thus, regardless of what ligand is bound, only the low-affinity site was available for fluorol in both WT and T224A CYP3A4.
(§3) Fluorescence measurements—Equilibrium fluorescence titrations were conducted on a Hitachi F-7000 fluorescence spectrophotometer at 23 °C in 50 mM phosphate buffer, pH 7.4, containing 0.6 mg/mL β-cyclodextrin. Fluorol solution (1 μM) was first titrated with small amounts of buffer using a low-retention plastic pipette tip until no further changes in fluorescence were detected (λex = 440 nm); then, the same tip was used for CYP3A4 additions (6 μM final concentration). […] CYP3A4-dependent changes in fluorescence intensity were plotted vs. CYP3A4 concentration, and Kd values were derived from nonlinear regression fittings.

[2] = molecular target: T2, T224A CYP3A4 (Homo sapiens, UniProt P08684, T224A); experiment: as above; format: binding; settings: for Kd: read-out: Kd, fluorometric
T2 construct: made in house
T2 sequence (P08684 with tags, fused parts or gaps T224A): as the sequence (P08684 with tags, fused parts or gaps) above, with T204A counted along it
From the text: as §1, §2, §3

[3] = molecular target: T2, T224A CYP3A4; experiment: Fluorol oxidation in a reconstituted system with cytochrome P450 reductase; format: in vitro ADME; settings: 25 μM fluorol, 1 μM CYP3A4, 2 μM CPR, 37 °C; substrate/product ratio
Protocol: This possibility was tested in a reconstituted system with cytochrome P450 reductase. […] The mass shift of +16 Da implies that fluorol undergoes a single-site oxidation.
Fluorol metabolism—Oxidation of fluorol by WT and T224A CYP3A4 was assessed in a reconstituted system with cytochrome P450 reductase. Reaction was carried out at 37 °C in 100 mM potassium phosphate, pH 7.4, containing catalase and superoxide dismutase (2 units/mL each), 1 μM WT or T224A CYP3A4, 2 μM CPR, NADPH regenerating system (10 mM glucose, 0.2 mM NADP^+, and 2 units/mL glucose-6-phosphate dehydrogenase), and 25 μM fluorol. After addition of 80 μM NADPH, samples were gently shaken, and 0.5 mL aliquots were taken in 15 min intervals. The reaction was stopped by adding 2 mL of dichloromethane. After 30 s vortexing, 1 mL of 0.3 M NaCl was added, and the sample was vortexed again and centrifuged for 10 min at 3000× g and 4 °C. The bottom organic phase (1 mL) was transferred to a glass vial, evaporated under the stream of nitrogen, and dissolved in 150 μL of methanol. Samples were analyzed by electrospray ionization mass spectroscopy using a Micromass LCP Premier mass spectrometer (Waters, Milford, MA, USA) in the negative ion mode, with 0.2 mL/min methanol flow. Chromatogram analysis and integrations were performed with Waters MassLynx MS software.

[4] = set-up: method as in PMID 18831537; settings: cited from earlier work

Reduction of emission quenching ([1]; GS8-bound WT CYP3A4 vs ligand-free): 10% | Kd ([1]; WT CYP3A4 in presence of 0.4 μM GS8, one-site model, read-out: Kd, fluorometric): 2.1 ± 0.3 µM | Kd ([1]; WT CYP3A4 in presence of 0.4 μM RIT, one-site model, read-out: Kd, fluorometric): 4.8 ± 0.6 µM | Kd ([1]; WT CYP3A4 in presence of 20 μM PRG, one-site model, read-out: Kd, fluorometric): 2.4 ± 0.2 µM | Kd at 1 μM ([1]; human, ligand-free WT CYP3A4 protein in buffer, pH 7.4, ligand-free WT CYP3A4, read-out: Kd, fluorometric, low-affinity site): 2.4 ± 0.4 µM | Percentage of the fluorescence change due to binding of fluorol to the high-affinity site ([1]; ligand-free WT CYP3A4): 25% | Kd ([1]; ligand-free WT CYP3A4, 1 μM fluorol, 23 °C, pH 7.4, read-out: Kd, fluorometric, high-affinity site): 0.15 ± 0.03 µM | Reduction of emission quenching ([1]; ritonavir-bound WT CYP3A4 vs ligand-free): 30% | Ligand-dependent decrease in emission change ([2]; GS8-bound T224A CYP3A4): 7% | Kd ([2]; T224A CYP3A4 in presence of 0.4 μM GS8, one-site model): 1.6 ± 0.2 µM | Kd ([2]; T224A CYP3A4 in presence of 0.4 μM RIT, one-site model): 3.5 ± 0.3 µM | Kd ([2]; T224A CYP3A4 in presence of 20 μM PRG, one-site model): 1.8 ± 0.2 µM | Ligand-dependent increase in emission change ([2]; T224A CYP3A4 in the presence of progesterone): 20% | Fluorescence decay in T224A relative to WT ([2]; larger in T224A, equilibrium titration): ~ 20% | Kd ([2]; ligand-free T224A CYP3A4, only a low-affinity site detected): 2 ± 0.3 µM | Ligand-dependent decrease in emission change ([2]; ritonavir-bound T224A CYP3A4): 20% | Efficiency of fluorol oxidation, mutant less efficient than WT [3]: ~ 20%
Structure (SMILES): CCCCNc1ccc2c3c(cccc13)C(=O)N(CCCC)C2=O [fluorol, 2-butyl-6-(butylamino)-1H-benzo[de]isoquinoline-1,3(2H)-dione]
Aqueous solubility [4]: limited aqueous solubility
